Results from ChEMBL document CHEMBL5325505, “Discovery of chiral 1,4-diarylazetidin-2-one-based hydroxamic acid derivatives as novel tubulin polymerization inhibitors with histone deacetylase inhibitory activity” (Bioorg Med Chem, 2023).
≈ marks a conversion by molar mass, not a printed value.

Experiments:
BE(2)-C [1] = experiment: Antiproliferative activity against human BE2C cells incubated for 48 hrs by MTT assay; assay type: functional, cell-based
A549 = experiment: Antiproliferative activity against human A549 cells incubated for 48 hrs by MTT assay; assay type: functional, cell-based; conditions: A549, 48 h
HCT-116 = experiment: Antiproliferative activity against human HCT-116 cells incubated for 48 hrs by MTT assay; assay type: functional, cell-based; conditions: HCT-116, 48 h
U-87 MG = experiment: Antiproliferative activity against human U-87 MG cells incubated for 48 hrs by MTT assay; assay type: functional, cell-based, U-87MG ATCC
BE(2)-C [2] = experiment: Antitumor activity against human BE2C cells xenografted in nude mouse assessed as tumor growth inhibition at 5 mg/kg, ip treated for every 3 days relative to control; assay type: functional; conditions: 72 h, time 3 day, read-out: TGI
[3] = Metabolic stability in human liver microsomes assessed as half life; assay type: ADME, Microsome
[4] = Metabolic stability in human liver microsomes assessed as compound remaining incubated for 5 mins; assay type: ADME, Microsome; conditions: read-out: Stability
[5] = Metabolic stability in human liver microsomes assessed as compound remaining incubated for 60 mins; assay type: ADME, Microsome; conditions: microsomes, 1 h
[6] = Metabolic stability in human liver microsomes assessed as compound remaining incubated for 30 mins; assay type: ADME, Microsome; conditions: microsomes, 0.5 h
[7] = Metabolic stability in human liver microsomes assessed as compound remaining incubated for 10 mins; assay type: ADME, Microsome; conditions: read-out: Stability
[8] = Metabolic stability in human liver microsomes assessed as intrinsic clearance; assay type: ADME, Microsome; conditions: read-out: CLH
[9] = Aqueous solubility of compound at 1 mg incubated for 10 mins; assay type: physicochemical
[10] = Metabolic stability in human liver microsomes assessed as compound remaining incubated for 20 mins; assay type: ADME, Microsome; conditions: liver microsomes, read-out: Stability
[11] = biological target: T1, Protein deacetylase HDAC6 (Homo sapiens, UniProt Q9UBN7); experiment: Inhibition of HDAC6 (unknown origin)
T1 sequence (Q9UBN7 whole entry): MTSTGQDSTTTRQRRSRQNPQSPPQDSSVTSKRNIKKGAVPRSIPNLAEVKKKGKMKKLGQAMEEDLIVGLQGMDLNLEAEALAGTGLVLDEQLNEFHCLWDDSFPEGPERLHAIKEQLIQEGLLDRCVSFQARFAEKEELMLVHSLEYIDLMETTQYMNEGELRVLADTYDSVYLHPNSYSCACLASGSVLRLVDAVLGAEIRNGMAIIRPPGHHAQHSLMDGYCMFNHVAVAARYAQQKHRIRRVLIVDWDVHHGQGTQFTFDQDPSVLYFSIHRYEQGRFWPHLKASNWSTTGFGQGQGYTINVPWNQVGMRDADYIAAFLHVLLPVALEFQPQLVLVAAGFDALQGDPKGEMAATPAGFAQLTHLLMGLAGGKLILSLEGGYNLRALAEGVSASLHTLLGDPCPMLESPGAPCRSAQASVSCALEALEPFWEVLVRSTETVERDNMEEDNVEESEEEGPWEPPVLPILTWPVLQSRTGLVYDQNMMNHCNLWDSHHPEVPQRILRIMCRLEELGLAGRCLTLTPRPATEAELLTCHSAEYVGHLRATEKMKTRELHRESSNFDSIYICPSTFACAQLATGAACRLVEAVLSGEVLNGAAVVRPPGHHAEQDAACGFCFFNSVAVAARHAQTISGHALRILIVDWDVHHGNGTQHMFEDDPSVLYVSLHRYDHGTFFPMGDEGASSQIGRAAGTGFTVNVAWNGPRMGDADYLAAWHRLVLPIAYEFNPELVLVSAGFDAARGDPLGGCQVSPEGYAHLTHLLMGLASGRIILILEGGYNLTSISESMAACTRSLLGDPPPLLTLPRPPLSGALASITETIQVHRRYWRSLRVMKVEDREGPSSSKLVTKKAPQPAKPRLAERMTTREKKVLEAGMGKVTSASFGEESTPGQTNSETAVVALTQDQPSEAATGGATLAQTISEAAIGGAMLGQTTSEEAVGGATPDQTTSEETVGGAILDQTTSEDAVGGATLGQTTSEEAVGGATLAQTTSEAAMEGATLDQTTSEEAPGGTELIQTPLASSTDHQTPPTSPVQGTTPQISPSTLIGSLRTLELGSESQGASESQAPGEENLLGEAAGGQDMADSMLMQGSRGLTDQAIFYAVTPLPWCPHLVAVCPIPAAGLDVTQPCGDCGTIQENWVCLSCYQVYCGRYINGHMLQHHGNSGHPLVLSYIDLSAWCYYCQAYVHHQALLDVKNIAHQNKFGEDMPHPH

Histone deacetylase 1 = Histone deacetylase 1 (Homo sapiens, UniProt Q13547); experiment: Inhibition of HDAC1 (unknown origin)
Chain of Histone deacetylase 1 (Q13547 whole entry): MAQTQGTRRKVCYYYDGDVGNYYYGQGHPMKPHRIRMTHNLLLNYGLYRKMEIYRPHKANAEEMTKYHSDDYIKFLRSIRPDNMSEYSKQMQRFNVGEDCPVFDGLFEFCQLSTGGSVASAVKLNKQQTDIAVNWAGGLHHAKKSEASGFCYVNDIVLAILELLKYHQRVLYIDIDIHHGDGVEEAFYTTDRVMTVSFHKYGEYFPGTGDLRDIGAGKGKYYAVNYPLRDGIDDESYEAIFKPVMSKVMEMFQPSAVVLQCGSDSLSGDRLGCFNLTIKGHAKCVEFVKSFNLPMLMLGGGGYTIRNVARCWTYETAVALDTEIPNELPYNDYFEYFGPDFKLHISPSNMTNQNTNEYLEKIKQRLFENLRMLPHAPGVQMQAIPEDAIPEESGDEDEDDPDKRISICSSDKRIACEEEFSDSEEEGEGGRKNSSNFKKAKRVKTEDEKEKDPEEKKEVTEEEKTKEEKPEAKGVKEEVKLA

Histone deacetylase 8 = biological target: T2, Histone deacetylase 8 (Homo sapiens, UniProt Q9BY41); experiment: Inhibition of HDAC8 (unknown origin)
T2 sequence (Q9BY41 whole entry): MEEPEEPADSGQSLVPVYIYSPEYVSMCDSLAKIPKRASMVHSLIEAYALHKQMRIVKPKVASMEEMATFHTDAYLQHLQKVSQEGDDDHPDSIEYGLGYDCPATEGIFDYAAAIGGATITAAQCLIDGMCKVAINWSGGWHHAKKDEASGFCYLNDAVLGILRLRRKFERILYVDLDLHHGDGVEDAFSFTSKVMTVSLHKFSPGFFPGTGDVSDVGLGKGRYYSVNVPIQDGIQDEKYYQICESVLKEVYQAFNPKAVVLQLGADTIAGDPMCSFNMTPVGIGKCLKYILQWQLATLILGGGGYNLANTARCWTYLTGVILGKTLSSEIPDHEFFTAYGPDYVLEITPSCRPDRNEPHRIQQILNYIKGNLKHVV

Tubulin = Tubulin (Sus scrofa, UniProt P02554+P02550); experiment: Inhibition of tubulin polymerization of pig brain by absorbance based assay

SMILES | IC50 (BE(2)-C [1]) | IC50 (A549) | IC50 (HCT-116) | IC50 (U-87 MG) | also measured
COc1ccc([C@H]2[C@H](C)C(=O)N2c2cc(OC)c(OC)c(OC)c2)cc1OCCCC(=O)NO | 1810 nM | 3650 nM | > 10000 nM | 4400 nM | 
CC(=O)O[C@H]1C(=O)[C@@]2(C)[C@H]([C@H](OC(=O)c3ccccc3)[C@]3(O)C[C@H](OC(=O)[C@H](O)[C@@H](NC(=O)c4ccccc4)c4ccccc4)C(C)=C1C3(C)C)[C@]1(OC(C)=O)CO[C@@H]1C[C@@H]2O [PACLITAXEL] |  |  |  |  | inhibition in vivo at 5 mg/kg (BE(2)-C [2]): 44%
COc1ccc([C@H]2[C@H](COC(=O)CCCC(=O)NO)C(=O)N2c2cc(OC)c(OC)c(OC)c2)cc1O | > 10000 nM | > 10000 nM | > 10000 nM | > 10000 nM | 
COc1ccc([C@H]2[C@H](C)C(=O)N2c2cc(OC)c(OC)c(OC)c2)cc1OCCCCC(=O)NO | 3970 nM | 2340 nM | > 10000 nM | > 10000 nM | 
O=C(CCCCCCC(=O)Nc1ccccc1)NO [VORINOSTAT] | 2110 nM |  |  |  | t1/2 [3]: 2.42 h; remaining at 5 min [4]: 96.4%; Stability [5]: 92.8%; Stability [6]: 105.7%; remaining at 10 min [7]: 98.4%; CLint scaled [8]: < 8.6 mL/min/kg; solubility at 10 min [9]: 91.7 µg/mL (≈ 347 µM); remaining at 20 min [10]: 99%
COc1ccc([C@H]2[C@H](COC(=O)CCC(=O)NO)C(=O)N2c2cc(OC)c(OC)c(OC)c2)cc1O | 43 nM | 16 nM | > 10000 nM | > 10000 nM | IC50 [11]: 2410 nM; IC50 (Histone deacetylase 1): 301 nM; IC50 (Histone deacetylase 8): 288 nM
COc1ccc([C@H]2[C@@H](C)C(=O)N2c2cc(OC)c(OC)c(OC)c2)cc1/C=C/C(=O)NO | 317 nM | 173 nM | 304 nM | 23 nM | 
C=C1C(=O)N(c2cc(OC)c(OC)c(OC)c2)[C@H]1c1ccc(OC)c(O)c1 | 186 nM | 128 nM | 234 nM | 143 nM | IC50 (Tubulin): 6600 nM
C=C1C(=O)N(c2cc(OC)c(OC)c(OC)c2)[C@H]1c1ccc(OC)c(/C=C/CC(=O)NO)c1 | 45 nM | 1260 nM | 620 nM | 2140 nM | 
COc1ccc([C@H]2[C@H](CNC(=O)CCC(=O)NO)C(=O)N2c2cc(OC)c(OC)c(OC)c2)cc1O | > 10000 nM | > 10000 nM | > 10000 nM | > 10000 nM | 
COc1ccc([C@H]2[C@H](COC(=O)c3ccc(C(=O)O)cc3)C(=O)N2c2cc(OC)c(OC)c(OC)c2)cc1O | 776 nM | 326 nM | 397 nM | 432 nM | 
COc1ccc([C@H]2[C@H](CNC(=O)c3ccc(C(=O)NO)cc3)C(=O)N2c2cc(OC)c(OC)c(OC)c2)cc1O | 303 nM | 479 nM | 500 nM | > 10000 nM | 
C=C1C(=O)N(c2cc(OC)c(OC)c(OC)c2)[C@H]1c1ccc(OC)c(/C=C/C(=O)NO)c1 | 35 nM | 84 nM | 60 nM | 72 nM | 
COc1ccc(/C=C\c2cc(OC)c(OC)c(OC)c2)cc1O [COMBRETASTATIN A4] |  |  |  |  | solubility at 10 min [9]: 1.04 µg/mL (≈ 3.29 µM)
COc1ccc([C@H]2[C@H](CNC(=O)CCCC(=O)NO)C(=O)N2c2cc(OC)c(OC)c(OC)c2)cc1O | > 10000 nM | > 10000 nM | > 10000 nM | > 10000 nM | 
COc1ccc([C@H]2[C@H](C)C(=O)N2c2cc(OC)c(OC)c(OC)c2)cc1OCCCCCC(=O)NO | 7690 nM | 7820 nM | 464 nM | > 10000 nM | 
COc1ccc([C@H]2[C@H](C)C(=O)N2c2cc(OC)c(OC)c(OC)c2)cc1OCC(=O)NO | 30 nM | 54 nM | 82 nM | 56 nM | 
